≈ marks a conversion by molar mass, not a printed value. Like-named read-outs stand apart in the source and are kept apart here.
Assays:
VRE12201 = test: MIC, microdilution broth method; type: cell-based, Enterococcus faecalis
SA4 = test: MIC, extended Gram-positive panel; type: cell-based, S. aureus; conditions: for MIC: S. aureus SA4, gyrA, 84:S => L, grlA, 80:S => F
AYE = test: MIC, microdilution broth method; type: cell-based, Acinetobacter baumannii
KP13368 = test: MIC, microdilution broth method; type: cell-based
EF1 = test: MIC, extended Gram-positive panel; type: cell-based, E.faecalis; conditions: for MIC: E.faecalis EF1
SA2 = test: MIC, extended Gram-positive panel; type: cell-based, S. aureus; conditions: for MIC: S. aureus SA2
SA1 = test: MIC, extended Gram-positive panel; type: cell-based, S. aureus; conditions: for MIC: S. aureus SA1, gyrA, 84:S => L, grlA, 80:S => F
SH1 = test: MIC, extended Gram-positive panel; type: cell-based, S. haemolyticus; conditions: for MIC: S. haemolyticus SH1
SA8 = test: MIC, extended Gram-positive panel; type: cell-based, S. aureus; conditions: for MIC: S. aureus SA8, gyrA, 84:S => L, grlA, 80:S => F
MSSA9144 = test: MIC, microdilution broth method; type: cell-based, Staphylococcus aureus
EMRSA16 = test: MIC, microdilution broth method; type: cell-based, Staphylococcus aureus
SA9 = type: cell-based, S. aureus; conditions: for MIC: S. aureus SA9, gyrA, 84:S => L, grlA, 80:S => F
SA10 = test: MIC, extended Gram-positive panel; type: cell-based, S. aureus
VSE775 = test: MIC, microdilution broth method; type: cell-based, Enterococcus faecalis; parameters: MIC, VSE775: unit not given beside the values
M6 = test: MIC, microdilution broth method; type: cell-based
EMRSA 15 strain = test: Reserpine (growth) assay for efflux; type: cell-based, Staphylococcus aureus; conditions: multidrug-resistant EMRSA 15 strain; compound 0.25×MIC, reserpine 10 μg/mL
SE1 = type: cell-based, S. epidermidis; conditions: for MIC: in µg/mL
EMRSA15 = test: MIC, microdilution broth method; type: cell-based, Staphylococcus aureus
SA5 = type: cell-based, S. aureus
EF2 = test: MIC, extended Gram-positive panel; type: cell-based, E.faecium; conditions: for MIC: E.faecium EF2, in µg/mL
SA3 = type: cell-based, S. aureus
SA6 = test: MIC, extended Gram-positive panel; type: cell-based, S. aureus; conditions: for MIC: S. aureus SA6, gyrA, 84:S => V, grlA, 80:S => F
MSSA 9144 strain = test: Reserpine (growth) assay for efflux; type: cell-based, Staphylococcus aureus; conditions: multidrug-resistant MSSA 9144 strain; compound 0.25×MIC, reserpine 10 μg/mL
SA7 = test: MIC, extended Gram-positive panel; type: cell-based, S. aureus; conditions: for MIC: S. aureus SA7, gyrA, 84:S => L, grlA, 80:S => F
Ab17978 = test: MIC, microdilution broth method; type: cell-based
PA13437 = test: MIC, microdilution broth method; type: cell-based; conditions: for MIC: PA13437
PA01 = test: MIC, microdilution broth method; type: cell-based, Pseudomonas aeruginosa
VRE12204 = test: MIC, microdilution broth method; type: cell-based, Enterococcus faecium; conditions: in µg/mL
[1] = tested on: extended panel of MDR strains with known multiple target mutations; type: cell-based
EC12923 = test: MIC, microdilution broth method; type: cell-based
[2] = tested on: multidrug resistant strains; test: Reserpine growth assay in several multidrug resistant strains (FIG. 27); type: cell-based; conditions: compared to ML-83-009 or levofloxacin
Protocol: Reserpine was added at a final concentration of 10 μg/mL (made up at 40 μg/mL in TSB, 50 μL per well). The bacteria were added at an OD of 0.01 in TSB (100 μL/well). The plate was a normal clear plate as used for MICs. OD was read every 30 minutes for 9 hours (the literature states 7 hours, but this is strain-dependent).

[3] = Ab17978, Normal (no PMBN), in µg/mL
[4] = ESKAPE panel, Gram-positive, in µg/mL
[5] = ESKAPE panel, Gram-negative, in µg/mL

CCn1cc(C(=O)O)c(=O)c2cc(F)c(N3CCN(Cc4cccc5ccccc45)CC3)cc21 [ML-77-021] gave an MIC (VRE12201; VRE12201, in µg/mL) of 4, an MIC (SA4) of 2 µg/mL (≈ 4.35 µM) and a Fold decrease (SA4; SA4, MIC of parent (CIP or NOR) versus ARB-linked derivative) of 32 fold. For the same compound, the MIC (AYE; AYE, +PMBN, in µg/mL) was >32, the MIC (AYE; AYE, Normal (no PMBN), in µg/mL) was >32 and the MIC (KP13368; KP13368, +PMBN, in µg/mL) was 4-8. The MIC (KP13368; KP13368, Normal (no PMBN), in µg/mL) was >32, the MIC (EF1) was 4 µg/mL (≈ 8.7 µM) and the Fold decrease (EF1; EF1, MIC of parent (CIP or NOR) versus ARB-linked derivative) was ≥32 fold. The MIC (SA2) was 1 µg/mL (≈ 2.18 µM), the Fold decrease (SA2; SA2, MIC of parent (CIP or NOR) versus ARB-linked derivative) was 8-64 fold and the MIC (SA1) was 4 µg/mL (≈ 8.7 µM). The Fold decrease (SA1; SA1, MIC of parent (CIP or NOR) versus ARB-linked derivative) was ≥32 fold, the MIC (SH1) was 4 µg/mL (≈ 8.7 µM) and the Fold decrease (SH1; SH1, MIC of parent (CIP or NOR) versus ARB-linked derivative) was 32 fold. For the same compound, the MIC (SA8) was 2 µg/mL (≈ 4.35 µM), the Fold decrease (SA8; SA8, MIC of parent (CIP or NOR) versus ARB-linked derivative) was 64 fold and the MIC (MSSA9144; MSSA9144, in µg/mL) was 1. For the same compound, the MIC (EMRSA16; EMRSA16, in µg/mL) was 2, the MIC (SA9) was 2 µg/mL (≈ 4.35 µM) and the Fold decrease (SA9; SA9, MIC of parent (CIP or NOR) versus ARB-linked derivative) was ≥64 fold. For the same compound, the MIC (SA10; S. aureus SA10, gyrA, 84:S => L, grlA, 80:S => F) was 2 µg/mL (≈ 4.35 µM), the Fold decrease (SA10; SA10, MIC of parent (CIP or NOR) versus ARB-linked derivative) was 64 fold and the MIC (VSE775; VSE775, in µg/mL) was 2. For the same compound, the MIC (M6; M6, +PMBN, in µg/mL) was 1-4, the MIC (M6; M6, Normal (no PMBN), in µg/mL) was 32 and the “efflux by the strain (reserpine assay)” value (EMRSA 15 strain) was “not effluxed”. For the same compound, the Fold decrease (SE1) was 1-4 fold, the MIC (SE1) was 1 and the MIC (EMRSA15; EMRSA15, in µg/mL) was 2. For the same compound, the Fold decrease (SA5) was ≥64 fold, the MIC (SA5) was 2 µg/mL (≈ 4.35 µM) and the MIC (EF2) was 2-4. For the same compound, the Fold decrease (EF2; EF2, MIC of parent (CIP or NOR) versus ARB-linked derivative) was ≥32 fold, the Fold decrease (SA3) was 32 fold and the MIC (SA3) was 2 µg/mL (≈ 4.35 µM). For the same compound, the MIC (SA6) was 2 µg/mL (≈ 4.35 µM), the Fold decrease (SA6; SA6, MIC of parent (CIP or NOR) versus ARB-linked derivative) was ≥64 fold and the “efflux by the strain (reserpine assay)” value (MSSA 9144 strain) was “not effluxed”. The MIC (SA7) was 2 µg/mL (≈ 4.35 µM), the Fold decrease (SA7; SA7, MIC of parent (CIP or NOR) versus ARB-linked derivative) was ≥64 fold and the MIC (Ab17978; Ab17978, +PMBN, in µg/mL) was 0.5. The MIC (Ab17978; [3]) was 32, the MIC (PA13437; +PMBN) was > 32 µg/mL and the MIC (PA13437; Normal (no PMBN)) was > 32 µg/mL. For the same compound, the MIC (PA01; PA01, +PMBN, in µg/mL) was 0.06-0.25, the MIC (PA01; PA01, Normal (no PMBN), in µg/mL) was >32 and the MIC (VRE12204; VRE12204) was 2.
C[C@H]1COc2c(N3CC[C@@H](Nc4ncccn4)C3)c(F)cc3c(=O)c(C(=O)O)cn1c23 [KSN-L22] was tested, and the “MIC, VRE12201” value (VRE12201; [4]) was 0.06, the MIC (VRE12201; Enterococcus faecalis, Enterococcus (VRE12201), Gram-Positive, read-out: MIC) was 0.06 µg/mL (≈ 0.141 µM) and the MIC ([1]; E. faecalis EF 602) was 0.25 µg/mL (≈ 0.588 µM). It also gave an MIC ([1]; E. faecium EF 205) of 0.12 µg/mL (≈ 0.282 µM), an MIC ([1]; S. aureus SA 046, gyrA, 84:S => L, grlA, 80:S => F) of 1 µg/mL (≈ 2.35 µM) and an MIC ([1]; S. aureus SA 105, gyrA, 84:S => L, grlA, 80:S => F) of 1 µg/mL (≈ 2.35 µM). It also gave an MIC ([1]; S. aureus SA 215, gyrA, 84:S => L, grlA, 80:S => F) of 1 µg/mL (≈ 2.35 µM), an MIC ([1]; S. aureus SA 275, gyrA, 84:S => V, grlA, 80:S => F) of 1 µg/mL (≈ 2.35 µM) and an MIC ([1]; S. aureus SA 318, gyrA, 84:S => L, grlA, 80:S => F) of 1 µg/mL (≈ 2.35 µM). For the same compound, the MIC ([1]; S. aureus SA 388, gyrA, 84:S => L, grlA, 80:S => F) was 1 µg/mL (≈ 2.35 µM), the MIC (AYE; Acinetobacter baumannii (AYE), Gram-Negative, read-out: MIC) was 4 µg/mL (≈ 9.4 µM) and the “MIC, AYE” value (AYE; [5]) was 4. The MIC, KP13368 (KP13368; ESKAPE panel, Gram-negative) was 4 µg/mL (≈ 9.4 µM), the MIC (KP13368; Klebsiella pneumoniae (KP13368), Gram-Negative, read-out: MIC) was 4 µg/mL (≈ 9.4 µM) and the “MIC, EC12923” value (EC12923; [5]) was 0.5. The MIC (EC12923; Escherichia coli (EC12923), Gram-Negative, read-out: MIC) was 0.5 µg/mL (≈ 1.18 µM), the “MIC, MSSA9144” value (MSSA9144; [4]) was ≤0.03 and the MIC (MSSA9144; Staphylococcus aureus (MSSA9144), Gram-Positive, read-out: MIC) was ≤ 0.03 µg/mL. For the same compound, the “MIC, EMRSA16” value (EMRSA16; EMRSA16 (Table 16, role of the terminal pyrimidine ring), in µg/mL) was 1, the “MIC, EMRSA16” value (EMRSA16; [4]) was 1 and the MIC (EMRSA16; S. aureus EMRSA16, gyrA, 84:S => L, grlA, 80:S => F (Table 11)) was 1. For the same compound, the MIC (EMRSA16; Staphylococcus aureus (EMRSA16), Gram-Positive (Table 14)) was 1 µg/mL (≈ 2.35 µM), the MIC (EMRSA16; Staphylococcus aureus (EMRSA16), Table 12, read-out: MIC) was 1 µg/mL (≈ 2.35 µM) and the “MIC, VSE775” value (VSE775; ESKAPE panel, Gram-positive) was 0.06. The MIC (VSE775; Enterococcus faecalis, Enterococcus (VRE775), Gram-Positive, read-out: MIC) was 0.06 µg/mL (≈ 0.141 µM), the “MIC, M6” value (M6; [5]) was 1 and the MIC (M6; Klebsiella pneumoniae (M6), Gram-Negative, read-out: MIC) was 1 µg/mL (≈ 2.35 µM). The “MIC, EMRSA15” value (EMRSA15; EMRSA15 (Table 16, role of the terminal pyrimidine ring), in µg/mL) was 0.5-1, the “MIC, EMRSA15” value (EMRSA15; [4]) was 0.5 and the MIC (EMRSA15; Staphylococcus aureus, Staphylococcus aureus (EMRSA15), Gram-Positive (Table 14), read-out: MIC) was 0.5 µg/mL (≈ 1.18 µM). For the same compound, the MIC (EMRSA15; Staphylococcus aureus, Staphylococcus aureus (EMRSA15), Table 12, read-out: MIC) was 0.5 to 1 µg/mL (≈ 1.18 to 2.35 µM), the “efflux from the bacteria (reserpine growth assay)” value [2] was “reduced efflux” and the MIC (Ab17978; Acinetobacter baumannii) was 0.125 µg/mL (≈ 0.294 µM). For the same compound, the “MIC, Ab17978” value (Ab17978; [5]) was 0.125, the MIC, PA13437 (PA13437; ESKAPE panel, Gram-negative) was > 32 µg/mL and the “MIC, PA01” value (PA01; [5]) was 4. For the same compound, the MIC (PA01; Pseudomonas aeruginosa (PA01), Gram-Negative, read-out: MIC) was 4 µg/mL (≈ 9.4 µM) and the “MIC, VRE12204” value (VRE12204; ESKAPE panel, Gram-positive) was 1.
O=C(O)c1cn(C2CC2)c2cc(N3CCN(Cc4cccc5ccccc45)CC3)c(F)cc2c1=O [ML-77-005] showed an MIC (VRE12201; VRE12201, in µg/mL) of 0.5, an MIC (SA4) of 2 µg/mL (≈ 4.24 µM) and an MIC (EF1) of 2 µg/mL (≈ 4.24 µM). For the same compound, the MIC (SA2) was 0.5 µg/mL (≈ 1.06 µM), the MIC (SA1) was 2 µg/mL (≈ 4.24 µM) and the MIC (SH1) was 4 µg/mL (≈ 8.48 µM). The MIC (SA8) was 2 µg/mL (≈ 4.24 µM), the MIC (MSSA9144; MSSA9144, in µg/mL) was 0.25-8 and the MIC (SA9) was 2 µg/mL (≈ 4.24 µM). The MIC (M6; M6, +PMBN, in µg/mL) was 0.5, the MIC (M6; M6, Normal (no PMBN), in µg/mL) was 32-64 and the MIC (SE1; S. epidermidis SE1) was 0.25-2. For the same compound, the MIC (SA5; S. aureus SA5, gyrA, 84:S => L, grlA, 80:S => F) was 2 µg/mL (≈ 4.24 µM), the MIC (EF2) was 2 and the MIC (SA3; S. aureus SA3, gyrA, 84:S => L, grlA, 80:S => F) was 2 µg/mL (≈ 4.24 µM). The MIC (SA6) was 2 µg/mL (≈ 4.24 µM), the MIC (SA7) was 2 µg/mL (≈ 4.24 µM) and the MIC (Ab17978; Ab17978, +PMBN) was “−.12-0.25”. The MIC (Ab17978; [3]) was 4, the MIC (PA13437; +PMBN) was 32 µg/mL (≈ 67.9 µM) and the MIC (PA01; PA01, +PMBN, in µg/mL) was <0.12-0.25.

Reference: US11746116B2, “Antibiotic resistance breakers” (KING'S COLLEGE LONDON, priority 2017, dated 2023)
